In PMC10487304, “Shaping the “hot” immunogenic tumor microenvironment by nanoparticles co‐delivering oncolytic peptide and TGF‐β1 siRNA for boosting checkpoint blockade therapy” (Bioengineering & Translational Medicine, 2022):
Where a SMILES comes first, the peptide text is derived from it. [ ]: non-standard residue; d: D form. The star is where a group is joined. FITC = O=C1OC2(c3ccc(O)cc3Oc3cc(O)ccc32)c2ccc(NC(=S)*)cc21; Dip = N[C@H](C(=O)O)C(c1ccccc1)c1ccccc1

Assays:
[1] = Balb/c mice, FITC fluorescence (485/535 nm) in blood samples
Protocol: At indicated time points, the mice were euthanized and the blood was taken from the heart. Sodium heparin was added to the blood samples at a concentration of 15 IU/ml. The fluorescence intensity of FITC‐LTX‐315 in the serum was measured using Tecan Infinite F200 Fluorescence Microplate Reader (Tecan, Seestrasse, Männedorf, Switzerland) at an excitation and emission wavelength of 485 and 535 nm, respectively.

[2] = due to high serum protein binding ability; cited from earlier work
Excerpt: Recently, several cationic antimicrobial peptides (CAPs), such as LTX‐315, have been extensively investigated as novel anticancer agents due to their ability to kill tumor cells and create a highly proinflammatory status of the TME, mainly via causing the destabilization of tumor cell plasma and mitochondrial membrane.[12] Subsequently, the CAPs trigger the immunogenic cell death (ICD) in tumor cells via Bax/Bak‐1 and caspase apoptotic pathways, which is along with the exposure or release of tumor antigens, danger‐associated molecular pattern (DAMP) molecules such as calreticulin, ATP and high ...

Structure (SMILES): NCCCC[C@H](NC(=O)[C@@H](NC(=O)[C@H](Cc1c[nH]c2ccccc12)NC(=O)[C@H](CCCCN)NC(=O)[C@H](CCCCN)NC(=O)[C@H](Cc1c[nH]c2ccccc12)NC(=O)[C@H](Cc1c[nH]c2ccccc12)NC(=O)[C@H](CCCCN)NC(=O)[C@H](CCCCN)NC(=S)Nc1ccc2c(c1)C(=O)OC21c2ccc(O)cc2Oc2cc(O)ccc21)C(c1ccccc1)c1ccccc1)C(N)=O [FITC-LTX] ({FITC}-KKWWKKW[Dip]K-NH2)
- elimination after i.v. injection [1]: eliminated within few minutes

Structure (SMILES): NCCCC[C@H](NC(=O)[C@@H](NC(=O)[C@H](Cc1c[nH]c2ccccc12)NC(=O)[C@H](CCCCN)NC(=O)[C@H](CCCCN)NC(=O)[C@H](Cc1c[nH]c2ccccc12)NC(=O)[C@H](Cc1c[nH]c2ccccc12)NC(=O)[C@H](CCCCN)NC(=O)[C@@H](N)CCCCN)C(c1ccccc1)c1ccccc1)C(N)=O [LTX-315] (H-KKWWKKW[Dip]K-NH2)
- fate upon systemic administration [2]: rapidly degraded into nontoxic metabolites
